Results from US4025555A, “Aromatic amidines as antiviral agents in animals” (Pfizer Inc., priority 1976, dated 1977).
Several values for one entry are separate records, joined by “and”; a condition that tells them apart may be missing. Equal entries are not always repeated.

The compounds below were run on circulating interferon (assay: not given). Details: mouse, in vivo, ip.
Parameters: species or system female Swiss mice
With `CCCCCCCCCCCCCCCCN(CCCCCCCCCCCCCCCC)Cc1cccc(C(=N)Nc2ccc(O)c(C)c2)c1` [Example 30] the “Plasma Interferon Levels” value was 66 units/ml. and 87 units/ml. and 61 units/ml. and 64 units/ml.

Each compound was assayed on encephalomyocarditis (EMC) virus (assay: Antiviral activity in mice challenged with lethal dose of encephalomyocarditis (EMC) virus (survival, relative survival, ED50)). Details: Mus musculus, ip, 240 h; as mg. dihydrochloride salt; i.p. 18-24 h before EMC virus challenge; day 10; read-out: ED50.
Assay type: in vivo, female albino mice
Method: The antiviral activity of the compounds of formula I is determined by the following procedure. The test compound is administered to mice by the intraperitoneal route eighteen to twenty-four hours prior to challenging them with a lethal dose of encephalomyocarditis (EMC) virus. The survival rate is determined ten days after challenge and an ED50 [dosage level (mg of compound/kg body weight) required to obtain a fifty percent survival rate] calculated. The procedure in which the drug is given eighteen to twenty-four hours before, and at a distinctly different site from, virus injection is designed to eliminate local effects between drug and virus and identify only those compounds which produce a systemic antiviral response.
Three groups of ten female albino mice (20-25 g. body weight) were given single 0.5 ml. intraperitoneal injections containing dosage levels of 1.5, 5, and 15 mg. of the named compound/kg. body weight, respectively. A fourth control group was given no such injection. Eighteen to twenty-four hours later all four groups were challenged with a 0.2 ml. subcutaneous injection containing 20-30 times the LD50, the dosage level causing a 50% death rate in ten days, of encephalomyocarditis (EMC) virus. The following survival data were recorded for the following ten days:
Antiviral activity is expressed as the relative survival (Sr) in experimental groups compared to the controls on the tenth day after challenge. Sr is defined by the formula [formula] wherein Sr = relative survival […]
Sx = percent survival after ten days in experimental group xi = number of survivors on the ith day in experimental group ei = number of survivors on the ith day in control group
The ED50 [dosage level (mg. of compound/kg. body weight) required to obtain a fifty percent survival rate] is determined graphically by plotting Sr (ordinate) vs. 1n dosage level (abscissa) and then fitting the points with a line of predetermined slope by least squares. The dosage level at which this fitted line has an ordinate of 50 is equivalent to the ED50.
In like manner to that described in Example 113 the antiviral activity was determined for the compounds listed below.
In the case of `CCCCCCCCCCCCCCCCN(CCCCCCCCCCCCCCCC)Cc1cccc(C(=N)NCc2ccccc2)c1` [Example 22], the ED50 is reported as 7.8 mg/kg.
With `CCCCCCCCCCCCCCCCN(CCCCCCCCCCCCCCCC)Cc1cccc(C(=N)Nc2ccc(S(N)(=O)=O)cc2)c1` [Example 16] the ED50 was 7 mg/kg.
With `CCCCCCCCCCCCCCCCN(CCCCCCCCCCCCCCCC)Cc1cccc(C(=N)Nc2ccc(S(C)(=O)=O)cc2)c1` [Example 19] the ED50 was 8.9 mg/kg.
`CCCCCCCCCCCCCCCCN(CCCCCCCCCCCCCCCC)Cc1cccc(C(=N)NC2CCCC2)c1` [Example 20, m-[N,N-Di(n-hexadecyl)aminomethyl]-N-cyclopentyl-benzamidine] was tested, and the ED50 was 27.3 mg/kg.
`CCCCCCCCCCCCCCCCN(CCCCCCCCCCCCCCCC)Cc1cccc(C(=N)Nc2ccc(O)cc2O)c1` [Example 33] was tested, and the ED50 was 37.2 mg/kg.
`CCCCCCCCCCCCCCCCN(CCCCCCCCCCCCCCCC)Cc1cccc(C(=N)Nc2ccccc2)c1` [Example 7] showed an ED50 of 12.3 mg/kg.
`CCCCCCCCCCCCCCCCN(CCCCCCCCCCCCCCCC)Cc1cccc(C(=N)NCCc2cnc[nH]2)c1` [Example 31] was tested, and the ED50 was 11.7 mg/kg.
`CCCCCCCCCCCCCCCCN(CCCCCCCCCCCCCCCC)Cc1cccc(C(=N)Nc2ccc(Cl)cc2Cl)c1` [Example 11] showed an ED50 of 35.7 mg/kg.
Compound `CCCCCCCCCCCCCCCCN(CCCCCCCCCCCCCCCC)Cc1cccc(C(=N)Nc2ccc(O)c(C)c2)c1` [Example 30] has an ED50 of 7.7 mg/kg.
`CCCCCCCCCCCCCCCCN(CCCCCCCCCCCCCCCC)Cc1cccc(C(=N)Nc2ncccn2)c1` [Example 17] was tested, and the ED50 was 12.9 mg/kg.
For `CCCCCCCCCCCCCCCCN(CCCCCCCCCCCCCCCC)Cc1cccc(C(=N)Nc2ccc(O)cc2)c1` [Example 12], the ED50 was 4.9 mg/kg.
Work on `CCCCCCCCCCCCCCCCN(CCCCCCCCCCCCCCCC)Cc1cccc(C(=N)NC(=O)C(=O)O)c1` [Example 4, m-[N,N-Di(n-hexadecyl)aminomethyl]-N-oxoacetic acid-benzamidine] yielded an ED50 of 9.9 mg/kg.
`CCCCCCCCCCCCCCCCN(CCCCCCCCCCCCCCCC)Cc1cccc(C(=N)NN(C)C)c1` [Example 23, m-[N,N-di(n-hexadecyl)aminomethyl]-N-dimethylamino-benzamidine] was tested, and the ED50 was 5 mg/kg.
`CCCCCCCCCCCCCCCCN(CCCCCCCCCCCCCCCC)Cc1cccc(C(=N)NCC)c1` [Example 26] gave an ED50 of 7.6 mg/kg.
Work on `CCCCCCCCCCCCCCCCN(CCCCCCCCCCCCCCCC)Cc1cccc(C(=N)Nc2ccc(Cl)cc2)c1` [Example 8] yielded an ED50 of 16 mg/kg.
Compound `CCCCCCCCCCCCCCCCN(CCCCCCCCCCCCCCCC)Cc1cccc(C(=N)Nc2nc(C)cs2)c1` [Example 21] has an ED50 of 47.5 mg/kg.
For `CCCCCCCCCCCCCCCCN(CCCCCCCCCCCCCCCC)Cc1cccc(C(=N)NCC2CC2)c1` [Example 29], the ED50 was 6.9 mg/kg.
For `CCCCCCCCCCCCCCCCN(CCCCCCCCCCCCCCCC)Cc1cccc(C(=N)Nc2ccc(C)cc2)c1` [Example 9], the ED50 was 7.7 mg/kg.
`CCCCCCCCCCCCCCCCN(CCCCCCCCCCCCCCCC)Cc1cccc(C(=N)Nc2ccc(OC)cc2)c1` [Example 6, m-[N,N-Di(n-hexadecyl)aminomethyl]-N-(p-methoxyphenyl)-benzamidine] gave an ED50 of 5.3 mg/kg.
Work on `CCCCCCCCCCCCCCCCN(CCCCCCCCCCCCCCCC)Cc1cccc(C(=N)NCC(F)(F)F)c1` [Example 28, m-[N,N-Di(n-hexadecyl)aminomethyl]-N-(2,2,2-trifluoroethyl)-benzamidine] yielded an ED50 of 3.8 mg/kg.
Compound `CCCCCCCCCCCCCCCCN(CCCCCCCCCCCCCCCC)Cc1cccc(C(=N)Nc2cccc([N+](=O)[O-])c2)c1` [Example 13] has an ED50 of 21.6 mg/kg.
Compound `CCCCCCCCCCCCCCCCN(CCCCCCCCCCCCCCCC)Cc1cccc(C(=N)N)c1` [Example 2, m-[N,N-Di-(n-hexadecyl)aminomethyl]-benzamidine] has an ED50 of 4.7 mg/kg.
Work on `CCCCCCCCCCCCCCCCN(CCCCCCCCCCCCCCCC)Cc1cccc(C(=N)Nc2ccc(OCC)cc2)c1` [Example 18] yielded an ED50 of 17.9 mg/kg.
In the case of `CCCCCCCCCCCCCCCCN(CCCCCCCCCCCCCCCC)Cc1cccc(C(=N)Nc2ccc(N(C)C)cc2)c1` [Example 14], the ED50 is reported as 8 mg/kg.
`CCCCCCCCCCCCCCCCN(CCCCCCCCCCCCCCCC)Cc1cccc(C(=N)Nc2ccccn2)c1` [Example 10] gave an ED50 of 49.3 mg/kg.
In the case of `CCCCCCCCCCCCCCCCN(CCCCCCCCCCCCCCCC)Cc1cccc(C(=N)Nc2ccc([N+](C)(C)C)cc2)c1` [Example 32], the ED50 is reported as 7.4 mg/kg.
Work on `CCCCCCCCCCCCCCCCN(CCCCCCCCCCCCCCCC)Cc1cccc(C(=N)NC(C)C)c1` [Example 25, m-[N,N-di(n-hexadecyl)aminomethyl]-N-(2-propyl)-benzamidine] yielded an ED50 of 2.8 mg/kg.
`CCCCCCCCCCCCCCCCN(CCCCCCCCCCCCCCCC)Cc1cccc(C(=N)NC)c1` [Example 27, m-[N,N-di(n-hexadecyl)aminomethyl]-N-methyl-benzamidine] showed an ED50 of 5.7 mg/kg.
In the case of `CCCCCCCCCCCCCCCCN(CCCCCCCCCCCCCCCC)Cc1cccc(C(=N)Nc2ccc(F)cc2)c1` [Example 15], the ED50 is reported as 38 mg/kg.

Same assay, conditions: Mus musculus, ip, 240 h; as mg. free base (Example 115); i.p. 18-24 h before EMC virus challenge; day 10; read-out: ED50
`CCCCCCCCCCCCCCCCN(CCCCCCCCCCCCCCCC)Cc1cccc(C(=N)NCCCS(=O)(=O)O)c1` [Example 3, m-[N,N-Di(n-hexadecyl)aminomethyl]-N-(n-propane)sulfonic acid-benzamidine] was tested, and the ED50 was 8 mg/kg.

Same assay, conditions: Mus musculus, ip, 240 h; i.p. 18-24 h before s.c. EMC virus challenge; graphical, day 10; read-out: ED50 (dosage level required to obtain a fifty percent survival rate)
`C=CCNC(=N)c1cccc(CN(CCCCCCCCCCCCCCCC)CCCCCCCCCCCCCCCC)c1` [Example 24, m-[N,N-di(n-hexadecyl)aminomethyl]-N-allyl-benzamidine] gave an ED50 of 4.7 mg/kg.

Same assay, conditions: mouse, in vivo, ip
For `C=CCNC(=N)c1cccc(CN(CCCCCCCCCCCCCCCC)CCCCCCCCCCCCCCCC)c1` [Example 24, m-[N,N-di(n-hexadecyl)aminomethyl]-N-allyl-benzamidine], the “Number of Survivors on Day 0” value was 10, the “Number of Survivors on Day 1” value was 10 and the “Number of Survivors on Day 2” value was 10. The “Number of Survivors on Day 3” value was 10, the “Number of Survivors on Day 4” value was 9 and 10 and the “Number of Survivors on Day 5” value was 8 and 6 and 5. The “Number of Survivors on Day 6” value was 8 and 6 and 4.
